Results from publication PMC10447463, “Data-mining unveils structure–property–activity correlation of viral infectivity enhancing self-assembling peptides” (Nature Communications, 2023).
Read-outs that look alike come from different tables or passages of the source.

Key:
[1] = β-sheet content by ATR-FT-IR; format: physicochemical; settings: for b -sheet / %: Fig. S7 panel A, β-sheet content by ATR-FT-IR; for beta sheet: peptides with TEM 2cat 0
Procedure, shortened: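 Conversion rate: fluorescamine fluorescence (ex 365/em 470 nm, 20 min RT) of 3 kDa filtrate versus unfiltered PNF, CR = 100 − 100 × filtrate/original intensity, triplicates. β-sheet content came from ATR FT-IR of lyophilized 1 mg/mL PNF powder, 64 scans.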

[2] = test system: HIV-1 infection of TZM-bl cells; assay: HIV-1 infectivity enhancement assay, β-galactosidase luminescence; format: cell-based; settings: for Rel-EFC: infection relative to EF-C (QCKIKQIINMWQ = 1); for Log10 Infection Rel EFC: log10 of infection relative to EF-C; for Log Infectivity: Log10 infection relative to EF-C, asymmetric std dev errors; for Log10 Infection Rel EF-C: HIV-1 infection of TZM-bl cells; for Log10 of Rel to EFC (Feb2021): Log10 of infection relative to EF-C; for Abs. Inf.: β-galactosidase luminescence
[3] = format: physicochemical; settings: for Tht category (> 2 to blank = +): Fig S10 panel D; for ThT Cat. / ThT-Fluorescence (categorical): ThT-active if fluorescence at least twice the control
Procedure, shortened: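 Fibrils (1 mg/mL solution) were mixed with 50 µM ThT in PBS for 15 min at RT, and fluorescence was read at λex 440/λem 488 nm against a PBS blank, as a triplicate mean ± SD. Zeta potential came from electrophoretic mobility (Smoluchowski) after 1 d aggregation at 1 mg/mL in PBS pH 7.4, diluted into 1 mM KCl.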

[4] = Fig. S7 panel A (plotted against β-sheet content), TZM-bl cells
[5] = Fig. S7 panel B (plotted against CR), rounded to two decimals, TZM-bl cells
[6] = Log10 of infection rate relative to EF-C, Figure 3A source data
[7] = infection rate relative to EF-C, log10, data of Figure 2D
[8] = infection rate relative to EF-C, log10, source data of Figure 2C
[9] = second listing, peptides with TEM 2cat 0
[10] = ThT fluorescence category, 1 if Rel. ThT >2

For KIKIKIKIWW, the “b -sheet / %” value [1] was 48.82%, the beta sheet [1] was 49 and the Rel-EFC ([2]; 1.3 µM peptide) was 0,37. For the same sequence, the “Log10 Infection Rel EFC” value ([2]; 1.3 µM peptide) was -0,43, the “Log Infectivity” value [2, 4] was -0.4266 and the “Log Infectivity” value [2, 5] was -0.43. The “Log10 Infection Rel EF-C” value [2, 6] was -0.43, the “Log10 Infection Rel EF-C” value [2, 7] was -0.4266 and the “Log10 Infection Rel EF-C” value [2, 8] was -0.4266. The “Log10 of Rel to EFC (Feb2021)” value ([2]; all peptides of FigS16) was -0.43, the “Log10 of Rel to EFC (Feb2021)” value [2, 9] was -0.43 and the “Tht category (> 2 to blank = +)” value [3] was 1 (ThT. Cat is 1, if Rel. ThT >2). For the same sequence, the “ThT Cat.” value ([3]; Fig S10 panel E) was 1 (ThT. Cat is 1, if Rel. ThT >2), the “ThT Cat,” value ([3]; ThT category, 1 if Rel. ThT >2) was 1 (ThT. Cat is 1, if Rel. ThT >2) and the “ThT Cat.” value [3, 10] was 1 (ThT. Cat is 1, if Rel. ThT >2). The “ThT Cat. / ThT-Fluorescence (categorical)” value (shortened to “ThT Cat. / ThT-Fluorescence”) [3] was 1 (ThT. Cat is 1, if Rel. ThT >2).
With RGDKIKIQIC the “b -sheet / %” value [1] was 40.73%, the Rel-EFC ([2]; 1.3 µM peptide) was 0,83 and the “Log10 Infection Rel EFC” value ([2]; 1.3 µM peptide) was -0,08. For the same sequence, the “Log Infectivity” value [2, 4] was -0.07993, the “Log Infectivity” value [2, 5] was -0.08 and the “Log10 Infection Rel EF-C” value [2, 6] was -0.08. For the same sequence, the “Log10 Infection Rel EF-C” value [2, 7] was -0.07993, the “Log10 Infection Rel EF-C” value [2, 8] was -0.07993 and the “Log10 of Rel to EFC (Feb2021)” value ([2]; all peptides of FigS16) was -0.08. For the same sequence, the “Tht category (> 2 to blank = +)” value [3] was 1 (ThT. Cat is 1, if Rel. ThT >2), the “ThT Cat.” value ([3]; Fig S10 panel E) was 1 (ThT. Cat is 1, if Rel. ThT >2) and the “ThT Cat,” value ([3]; ThT category, 1 if Rel. ThT >2) was 1 (ThT. Cat is 1, if Rel. ThT >2). The “ThT Cat.” value [3, 10] was 1 (ThT. Cat is 1, if Rel. ThT >2) and the “ThT Cat. / ThT-Fluorescence” value [3] was 1 (ThT. Cat is 1, if Rel. ThT >2).
In the case of EIEIQINMWQ, the “b -sheet / %” value [1] is reported as 53.91%, the beta sheet [1] is reported as 54 and the “infectivity enhancement relative to EF-C” value ([2]; 1.3 µM peptide) is reported as 13%. For the same sequence, the Rel-EFC ([2]; 1.3 µM peptide) was 0,13, the “Log10 Infection Rel EFC” value ([2]; 1.3 µM peptide) was -0,88 and the “Log Infectivity” value [2, 4] was -0.881. The “Log Infectivity” value [2, 5] was -0.88, the “Log10 Infection Rel EF-C” value [2, 6] was -0.88 and the “Log10 Infection Rel EF-C” value [2, 7] was -0.881. The “Log10 Infection Rel EF-C” value [2, 8] was -0.881, the “Log10 of Rel to EFC (Feb2021)” value ([2]; all peptides of FigS16) was -0.88 and the “Log10 of Rel to EFC (Feb2021)” value [2, 9] was -0.88. For the same sequence, the “Abs. Inf.” value ([2]; absolute HIV-1 infection signal, TZM-bl cells) was 2137, the “Tht category (> 2 to blank = +)” value [3] was 1 (ThT. Cat is 1, if Rel. ThT >2) and the “ThT Cat.” value ([3]; Fig S10 panel E) was 1 (ThT. Cat is 1, if Rel. ThT >2). For the same sequence, the “ThT Cat,” value ([3]; ThT category, 1 if Rel. ThT >2) was 1 (ThT. Cat is 1, if Rel. ThT >2), the “ThT Cat.” value ([3]; ThT category, 1 if Rel. ThT >2) was 1 (ThT. Cat is 1, if Rel. ThT >2) and the “ThT Cat. / ThT-Fluorescence” value [3] was 1 (ThT. Cat is 1, if Rel. ThT >2).
With CKIKIQINM the “b -sheet / %” value [1] was 42.84%, the Rel-EFC ([2]; 1.3 µM peptide) was 1,59 and the “Log10 Infection Rel EFC” value ([2]; 1.3 µM peptide) was 0,2. For the same sequence, the “Log Infectivity” value [2, 4] was 0.2012, the “Log Infectivity” value [2, 5] was 0.2 and the “Log10 Infection Rel EF-C” value [2, 6] was 0.2. For the same sequence, the “Log10 Infection Rel EF-C” value [2, 7] was 0.2012, the “Log10 Infection Rel EF-C” value [2, 8] was 0.2012 and the “Log10 of Rel to EFC (Feb2021)” value ([2]; all peptides of FigS16) was 0.2. For the same sequence, the “Tht category (> 2 to blank = +)” value [3] was 1 (ThT. Cat is 1, if Rel. ThT >2), the “ThT Cat.” value ([3]; Fig S10 panel E) was 1 (ThT. Cat is 1, if Rel. ThT >2) and the “ThT Cat,” value ([3]; ThT category, 1 if Rel. ThT >2) was 1 (ThT. Cat is 1, if Rel. ThT >2). For the same sequence, the “ThT Cat.” value [3, 10] was 1 (ThT. Cat is 1, if Rel. ThT >2) and the “ThT Cat. / ThT-Fluorescence” value [3] was 1 (ThT. Cat is 1, if Rel. ThT >2).
For CSISIQINM, the “b -sheet / %” value [1] was 55.93%, the Rel-EFC ([2]; 1.3 µM peptide) was 0,2 and the “Log10 Infection Rel EFC” value ([2]; 1.3 µM peptide) was -0,7. The “Log Infectivity” value [2, 4] was -0.7027, the “Log Infectivity” value [2, 5] was -0.7 and the “Log10 Infection Rel EF-C” value [2, 6] was -0.7. The “Log10 Infection Rel EF-C” value [2, 7] was -0.7027, the “Log10 Infection Rel EF-C” value [2, 8] was -0.7027 and the “Log10 of Rel to EFC (Feb2021)” value ([2]; all peptides of FigS16) was -0.7. For the same sequence, the “Tht category (> 2 to blank = +)” value [3] was 1 (ThT. Cat is 1, if Rel. ThT >2), the “ThT Cat.” value ([3]; Fig S10 panel E) was 1 (ThT. Cat is 1, if Rel. ThT >2) and the “ThT Cat,” value ([3]; ThT category, 1 if Rel. ThT >2) was 1 (ThT. Cat is 1, if Rel. ThT >2). For the same sequence, the “ThT Cat.” value [3, 10] was 1 (ThT. Cat is 1, if Rel. ThT >2) and the “ThT Cat. / ThT-Fluorescence” value [3] was 1 (ThT. Cat is 1, if Rel. ThT >2).
In the case of QCKIKIQINM, the “b -sheet / %” value [1] is reported as 37.11%, the Rel-EFC ([2]; 1.3 µM peptide) is reported as 0,4 and the “Log10 Infection Rel EFC” value ([2]; 1.3 µM peptide) is reported as -0,4. For the same sequence, the “Log Infectivity” value [2, 4] was -0.4024, the “Log Infectivity” value [2, 5] was -0.4 and the “Log10 Infection Rel EF-C” value [2, 6] was -0.4. For the same sequence, the “Log10 Infection Rel EF-C” value [2, 7] was -0.4024, the “Log10 Infection Rel EF-C” value [2, 8] was -0.4024 and the “Log10 of Rel to EFC (Feb2021)” value ([2]; all peptides of FigS16) was -0.4. The “Abs. Inf.” value ([2]; absolute infection signal, HIV-1 on TZM-bl cells) was 15250, the “Log10 Inf. rel. to EF-C” value ([2]; log10 of HIV-1 infection of TZM-bl cells relative to EF-C (EF-C = 0)) was -0.4024 and the “Tht category (> 2 to blank = +)” value [3] was 1 (ThT. Cat is 1, if Rel. ThT >2). For the same sequence, the “ThT Cat.” value ([3]; Fig S10 panel E) was 1 (ThT. Cat is 1, if Rel. ThT >2), the “ThT Cat,” value ([3]; ThT category, 1 if Rel. ThT >2) was 1 (ThT. Cat is 1, if Rel. ThT >2) and the “ThT Cat.” value ([3]; ThT category, 1 if Rel. ThT >2) was 1 (ThT. Cat is 1, if Rel. ThT >2). For the same sequence, the “ThT Cat. / ThT-Fluorescence” value [3] was 1 (ThT. Cat is 1, if Rel. ThT >2).
